Source: ChEMBL document CHEMBL1201862, “PubChem BioAssay data set” (2004)
The source made the active and inactive calls.

Experiments:
[1] = biological target: T1, Zinc finger protein mex-5 (Caenorhabditis elegans, UniProt Q9XUB2); assay: MEX-5/TCR-2 RNA interaction inhibitors, dose response, biochemical, C. elegans, fluorescence polarization (AID 1960)
T1 sequence (Q9XUB2 whole entry): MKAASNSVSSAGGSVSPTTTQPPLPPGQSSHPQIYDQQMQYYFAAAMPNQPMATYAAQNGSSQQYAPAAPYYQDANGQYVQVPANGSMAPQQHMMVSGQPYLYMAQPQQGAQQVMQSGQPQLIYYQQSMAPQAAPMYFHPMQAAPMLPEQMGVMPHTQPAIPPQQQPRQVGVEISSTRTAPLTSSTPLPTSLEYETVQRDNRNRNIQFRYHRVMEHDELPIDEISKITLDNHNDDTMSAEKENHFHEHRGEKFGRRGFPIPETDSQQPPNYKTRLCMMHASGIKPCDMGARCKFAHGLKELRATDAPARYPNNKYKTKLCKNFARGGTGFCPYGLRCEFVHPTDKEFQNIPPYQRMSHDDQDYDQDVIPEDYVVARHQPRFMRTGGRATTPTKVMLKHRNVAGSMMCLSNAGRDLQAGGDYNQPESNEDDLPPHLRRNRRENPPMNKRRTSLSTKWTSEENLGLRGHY

[2] = biological target: T2, RNA-binding protein pos-1 (Caenorhabditis elegans, UniProt G5EF15); assay: inhibitors of POS-1/mex-3 RNA binding, dose response, biochemical, fluorescence polarization (AID 1964);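 further: purified POS-1 fused to maltose binding protein made in E. coli; potency of compounds blocking POS-1 binding to fluorescent RNA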
T2 sequence (G5EF15 whole entry): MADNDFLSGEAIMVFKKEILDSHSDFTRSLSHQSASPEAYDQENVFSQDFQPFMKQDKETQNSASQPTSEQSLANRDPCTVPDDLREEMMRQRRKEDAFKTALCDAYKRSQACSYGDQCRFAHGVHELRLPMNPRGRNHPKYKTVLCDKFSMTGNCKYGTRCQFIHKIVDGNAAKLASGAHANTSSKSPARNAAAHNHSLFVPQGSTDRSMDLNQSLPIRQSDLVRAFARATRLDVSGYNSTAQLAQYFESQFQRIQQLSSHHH

[3] = inhibitors of SNCA 5'UTR-driven reporter translation, confirmation, H4 neuroglioma cells, luminescence (AID 1988); type: functional, cell-based
[4] = Luminescence Cell-Based Dose Response HTS to Identify Inhibitors of 5'UTR Stem-Loop Driven Prion Protein mRNA Translation in H4 Neuroglioblastoma Cells. [Related pubchem assays: 1827 (Project Summary), 1813 (Primary HTS)]; type: functional
[5] = inhibitors of firefly luciferase expression or activity, dose response, H4 neuroglioma cells, luminescence (AID 1990); type: functional, cell-based
[6] = biological target: Luciferin 4-monooxygenase (Photinus pyralis, UniProt P08659); assay: firefly luciferase enzyme inhibitors, dose response, biochemical, luminescence (AID 1891)
Sequence of Luciferin 4-monooxygenase (P08659 whole entry): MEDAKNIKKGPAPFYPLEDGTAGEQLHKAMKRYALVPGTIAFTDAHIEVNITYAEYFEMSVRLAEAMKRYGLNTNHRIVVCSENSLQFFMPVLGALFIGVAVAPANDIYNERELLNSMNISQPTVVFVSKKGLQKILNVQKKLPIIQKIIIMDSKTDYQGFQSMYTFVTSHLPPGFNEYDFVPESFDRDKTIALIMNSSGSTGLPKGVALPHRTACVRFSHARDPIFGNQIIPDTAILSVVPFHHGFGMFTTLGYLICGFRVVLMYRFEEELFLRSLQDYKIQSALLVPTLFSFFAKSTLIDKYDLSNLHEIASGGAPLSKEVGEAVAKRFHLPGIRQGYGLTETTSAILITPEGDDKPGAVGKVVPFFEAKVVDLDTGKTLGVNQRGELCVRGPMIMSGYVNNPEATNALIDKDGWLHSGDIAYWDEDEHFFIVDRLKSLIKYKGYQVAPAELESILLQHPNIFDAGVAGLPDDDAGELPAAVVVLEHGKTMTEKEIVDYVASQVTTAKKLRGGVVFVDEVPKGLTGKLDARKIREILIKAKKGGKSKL

[7] = Luminescence Cell-Based Dose Confirmation HTS to Identify Inhibitors of Platelet Dense Granule Release. [Related pubchem assays: 1663 (Primary HTS), 1678 (Summary of Project)]; type: functional
Cytochrome P450 3A4 = Cytochrome P450 3A4 (Homo sapiens, UniProt P08684);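 further: CYP3A4 tested as one member of a cytochrome P450 panel screen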
Sequence of Cytochrome P450 3A4 (P08684 whole entry): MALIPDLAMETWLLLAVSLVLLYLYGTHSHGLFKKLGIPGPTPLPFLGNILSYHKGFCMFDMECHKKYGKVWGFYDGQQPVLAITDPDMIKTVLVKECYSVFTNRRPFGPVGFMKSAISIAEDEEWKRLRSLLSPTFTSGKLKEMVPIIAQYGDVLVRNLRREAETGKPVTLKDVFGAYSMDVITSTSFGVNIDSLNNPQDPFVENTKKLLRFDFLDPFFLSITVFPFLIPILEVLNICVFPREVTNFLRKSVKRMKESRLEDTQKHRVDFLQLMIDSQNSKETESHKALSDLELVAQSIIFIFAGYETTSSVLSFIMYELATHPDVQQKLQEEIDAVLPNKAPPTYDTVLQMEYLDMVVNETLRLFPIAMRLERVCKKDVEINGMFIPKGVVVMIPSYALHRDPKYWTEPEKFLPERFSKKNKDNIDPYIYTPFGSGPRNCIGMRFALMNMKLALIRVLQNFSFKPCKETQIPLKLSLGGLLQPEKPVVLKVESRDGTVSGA

Cytochrome P450 1A2 = biological target: T3, Cytochrome P450 1A2 (Homo sapiens, UniProt P05177);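 further: PubChem cytochrome P450 panel assay, CYP1A2 panel member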
T3 sequence (P05177 whole entry): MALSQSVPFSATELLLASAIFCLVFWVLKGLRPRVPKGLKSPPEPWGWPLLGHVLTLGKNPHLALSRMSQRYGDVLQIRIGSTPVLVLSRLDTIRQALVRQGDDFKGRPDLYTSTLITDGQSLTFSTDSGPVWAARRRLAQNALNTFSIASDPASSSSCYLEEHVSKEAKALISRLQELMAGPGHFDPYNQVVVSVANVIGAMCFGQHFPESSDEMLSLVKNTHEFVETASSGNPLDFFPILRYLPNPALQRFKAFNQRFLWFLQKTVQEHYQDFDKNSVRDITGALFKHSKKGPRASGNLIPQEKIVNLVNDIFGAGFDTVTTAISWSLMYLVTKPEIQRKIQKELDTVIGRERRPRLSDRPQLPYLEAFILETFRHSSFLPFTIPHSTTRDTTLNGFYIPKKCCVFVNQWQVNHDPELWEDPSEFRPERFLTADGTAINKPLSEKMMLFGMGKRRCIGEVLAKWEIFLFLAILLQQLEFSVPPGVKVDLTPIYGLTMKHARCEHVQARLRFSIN

Cytochrome P450 2C19 = Cytochrome P450 2C19 (Homo sapiens, UniProt P33261); assay: Cytochrome panel assay with activity outcomes. Panel member name: p450-cyp2c19 Compounds with AC50 equal or less than 10 uM are considered active; type: functional; conditions: read-out: AC50
Sequence of Cytochrome P450 2C19 (P33261 whole entry): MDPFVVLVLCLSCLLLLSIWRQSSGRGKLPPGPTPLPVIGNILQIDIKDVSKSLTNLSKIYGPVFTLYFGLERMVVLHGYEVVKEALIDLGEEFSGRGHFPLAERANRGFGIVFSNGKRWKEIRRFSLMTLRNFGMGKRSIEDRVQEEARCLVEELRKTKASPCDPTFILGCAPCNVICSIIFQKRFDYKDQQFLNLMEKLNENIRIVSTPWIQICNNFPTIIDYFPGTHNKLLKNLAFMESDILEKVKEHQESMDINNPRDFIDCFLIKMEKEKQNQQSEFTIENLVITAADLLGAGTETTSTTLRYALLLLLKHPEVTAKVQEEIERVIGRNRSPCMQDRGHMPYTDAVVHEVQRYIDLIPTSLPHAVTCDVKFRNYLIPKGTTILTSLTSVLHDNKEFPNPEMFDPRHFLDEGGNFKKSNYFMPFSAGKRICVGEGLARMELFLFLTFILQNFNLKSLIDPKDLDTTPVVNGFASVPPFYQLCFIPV

[8] = test system: Streptococcus sp. 'group A'; assay: growth inhibition of control SK(-) GAS strain, dose response, counter-screen for streptokinase expression inhibitor project, luminescence, kanamycin, BacTiterGlo, confirmation (AID 1900); type: functional, organism-based
[9] = cytotoxicity toward NIH3T3 fibroblasts, dose response, counter-screen, cell-based, ATP luminescence, mouse fibroblasts (AID 2010); type: functional;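 further: cells exposed to compound for about 90 hours before reading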
[10] = inhibitors of intracellular T. cruzi replication, confirmation, NIH3T3 host cells, beta-gal luminescence (AID 2044); type: functional, cell-based;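 further: intracellular parasites grown in NIH/3T3 mouse fibroblasts as host cells; luminescent beta-galactosidase reporter signal from transgenic T. cruzi replicating inside host cells; inhibitors lower the luminescence signal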
Streptococcus = assay: Group A Streptococcus viability loss, dose response, counter-screen for streptokinase expression inhibitor project, luminescence, BacTiterGlo (AID 1915); type: functional, organism-based;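 further: potency for reduction of bacterial viability or growth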
Streptokinase A = biological target: T4, Streptokinase A (Streptococcus pyogenes serotype M1, UniProt P10520); assay: S. pyogenes streptokinase expression inhibitors, potency, dose response, plasminogen activation absorbance, OD405 (AID 1914); type: functional, Streptococcus pyogenes M1 GAS;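 further: secreted streptokinase activity via plasminogen activation per viability signal from cell pellet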
T4 sequence (P10520 whole entry): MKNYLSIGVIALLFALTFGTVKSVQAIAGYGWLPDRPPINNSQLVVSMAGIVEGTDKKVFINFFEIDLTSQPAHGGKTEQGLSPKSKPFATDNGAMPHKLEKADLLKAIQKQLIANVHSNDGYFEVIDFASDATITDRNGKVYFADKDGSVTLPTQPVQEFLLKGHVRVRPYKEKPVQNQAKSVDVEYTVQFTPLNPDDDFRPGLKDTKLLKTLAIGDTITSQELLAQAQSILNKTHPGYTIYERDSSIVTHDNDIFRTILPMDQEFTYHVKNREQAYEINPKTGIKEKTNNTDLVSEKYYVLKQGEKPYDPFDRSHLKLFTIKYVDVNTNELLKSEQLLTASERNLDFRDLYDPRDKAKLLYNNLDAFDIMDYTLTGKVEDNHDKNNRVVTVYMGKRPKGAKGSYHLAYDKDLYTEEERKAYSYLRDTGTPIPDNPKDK

Cytochrome P450 2C9 = Cytochrome P450 2C9 (Homo sapiens, UniProt P11712)
Sequence of Cytochrome P450 2C9 (P11712 whole entry): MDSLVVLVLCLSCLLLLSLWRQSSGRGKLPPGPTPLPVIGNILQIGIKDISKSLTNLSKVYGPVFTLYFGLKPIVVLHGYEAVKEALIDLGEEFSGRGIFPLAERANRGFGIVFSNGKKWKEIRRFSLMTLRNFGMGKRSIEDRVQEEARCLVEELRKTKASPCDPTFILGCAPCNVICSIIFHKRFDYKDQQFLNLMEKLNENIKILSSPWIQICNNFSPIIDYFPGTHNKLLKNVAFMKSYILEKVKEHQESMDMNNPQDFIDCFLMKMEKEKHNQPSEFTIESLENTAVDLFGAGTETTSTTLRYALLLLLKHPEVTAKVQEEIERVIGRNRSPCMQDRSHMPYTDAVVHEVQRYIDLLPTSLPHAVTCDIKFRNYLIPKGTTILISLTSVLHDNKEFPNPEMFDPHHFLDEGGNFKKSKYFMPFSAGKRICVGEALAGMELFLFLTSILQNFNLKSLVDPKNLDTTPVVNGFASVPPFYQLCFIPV

Structure (SMILES): CC(C)CNC(=O)C1Nc2ccccc2C2C=CCC12 (centres undefined)
- EC50 [1]: > 300 µM (not active)
- EC50 [2]: > 300 µM (not active)

Structure (SMILES): N#C/C(=C\N1CCN(Cc2ccc3c(c2)OCO3)CC1)c1nc2ccccc2s1
- EC50 [1]: > 300 µM (not active)
- EC50 [2]: > 300 µM (not active)

Structure (SMILES): Cc1cc(C=C2C(=O)N(C)C(=S)N(C)C2=O)c(C)n1C1CCCC1
- EC50 [1]: 129 µM (active)
- EC50 [2]: 189 µM (active)

Structure (SMILES): Cc1csc(NC(=O)c2cc3c(s2)CCCCC3)n1
- EC50 [3]: 3.58 µM (active)
- EC50 [4]: 2.57 µM (active)

Structure (SMILES): O=C(NC1CC1)C1=C[C@@H](c2coc3ccccc3c2=O)C[C@@H](OCc2ccc(CO)cc2)O1
- EC50 [3]: > 120 µM (not active)
- EC50 [5]: > 120 µM (not active)
- EC50 [4]: > 120 µM (not active)

Structure (SMILES): CC1CCN(S(=O)(=O)c2ccc3c(c2)N(CC(=O)N(C)Cc2ccco2)C(=O)CO3)CC1
- EC50 [3]: 21.2 µM (active)
- EC50 [5]: > 120 µM (not active)
- EC50 [4]: > 120 µM (not active)

Structure (SMILES): CC(=O)N/C=C1\C(=O)N(C)C(=O)C(C#N)=C1C
- EC50 [1]: 34.9 µM (active)
- EC50 [2]: 36.1 µM (active)

Structure (SMILES): O=Cc1cn(Cc2ccc(F)cc2Cl)c2ccccc12
- EC50 [3]: 12.4 µM (active)
- EC50 [5]: 16.2 µM (active)
- EC50 [4]: 16.8 µM (active)

Structure (SMILES): COc1cc2c3nnc(-c4ccccc4)c-3cn(Cc3ccc(F)cc3)c2cc1OC
- EC50 [1]: > 300 µM (not active)
- EC50 [2]: > 300 µM (not active)

Structure (SMILES): CC(=O)N(Cc1c(C#N)c2ccccc2n1C)c1ccccc1
- EC50 [6]: > 112 µM (not active)
- EC50 [7]: > 112 µM (not active)

Structure (SMILES): O=C(COC(=O)c1ccc(Cl)c(S(=O)(=O)NCc2ccccc2)c1)NCC1CCCO1 (centres undefined)
- EC50 [6]: > 112 µM (not active)
- EC50 [7]: > 112 µM (not active)

Structure (SMILES): Cc1sc(-n2c(C)cc(C=C3C(=O)NC(=O)NC3=O)c2C)c(C#N)c1C
- EC50 [1]: > 300 µM (not active)
- EC50 [2]: > 300 µM (not active)

Structure (SMILES): CCOC(=O)N1CCN(S(=O)(=O)c2ccc(C(=O)Nc3ccc(F)cc3F)cc2)CC1
- AC50 (Cytochrome P450 3A4): 14.1 µM (inconclusive)
- AC50 (Cytochrome P450 1A2): 6.31 µM (inconclusive)
- EC50 [3]: 7.91 µM (active)
- EC50 [5]: 10.9 µM (active)
- EC50 [4]: > 120 µM (not active)
- AC50 (Cytochrome P450 2C19): 25.1 µM (inconclusive)

Structure (SMILES): NC(=O)c1ccc[n+](Cc2ccccc2)c1
- EC50 [6]: > 112 µM (not active)
- EC50 [7]: > 112 µM (not active)

Structure (SMILES): COc1cc(C2C(C#N)=C(N)OC3=C2C(=O)CC(C)(C)C3)cc2c1OCO2 (centres undefined)
- EC50 [1]: > 300 µM (not active)
- EC50 [2]: > 300 µM (not active)

Structure (SMILES): CCOC(=O)c1cnc2c(OC)cccc2c1N1CC(C)CC(C)C1 (centres undefined)
- EC50 [3]: 14.4 µM (active)
- EC50 [5]: 13.9 µM (active)
- EC50 [4]: > 120 µM (not active)

Structure (SMILES): CC(C)(C)C(Cn1ccnc1)NC(=O)c1ccc2nc(C3CC3)oc2c1 (centres undefined)
- EC50 [6]: > 112 µM (not active)
- EC50 [7]: > 112 µM (not active)

Structure (SMILES): COc1ccc(C2=Nn3c(nnc3-c3cc(C)[nH]n3)SC2)cc1
- EC50 [6]: > 112 µM (not active)
- EC50 [7]: > 112 µM (not active)

Structure (SMILES): CC1=C(C#N)C(=O)N(C)C(=O)/C1=C\NNc1ccc(C)c(C)c1
- EC50 [1]: 40.6 µM (active)
- EC50 [2]: > 300 µM (not active)

Structure (SMILES): COc1ccc(CN2CCCC(C(=O)c3ccc(Cl)cc3)C2)cc1Cn1cccn1 (centres undefined)
- EC50 [3]: > 120 µM (not active)
- EC50 [5]: > 120 µM (not active)
- EC50 [4]: > 120 µM (not active)

Structure (SMILES): Cc1c([N+](=O)[O-])c(N)nn1C
- EC50 [3]: > 120 µM (not active)
- EC50 [5]: > 120 µM (not active)
- EC50 [4]: > 120 µM (not active)

Structure (SMILES): Cc1ccc(S(=O)(=O)NNC(=O)c2ccccc2-n2cccc2)cc1
- EC50 [3]: > 120 µM (not active)
- EC50 [5]: > 120 µM (not active)
- EC50 [4]: > 120 µM (not active)

Structure (SMILES): COc1ccc(-c2cc(C(F)(F)F)nc(NCc3cccs3)n2)cc1
- EC50 [8]: 3.73 µM (active)
- EC50 [9]: > 60 µM (not active)
- EC50 [10]: 2.19 µM (active)
- EC50 (Streptococcus): > 150 µM (not active)
- EC50 (Streptokinase A): 13.8 µM (active)

Structure (SMILES): O=C(Nc1ccc2oc(-c3ccccc3)nc2c1)C1CCCO1 (centres undefined)
- EC50 [6]: 70.4 µM (active)
- EC50 [7]: 25.1 µM (active)

Structure (SMILES): CC(N)Cc1ccccc1Sc1ccc(O)cc1 (centres undefined)
- EC50 [6]: > 112 µM (not active)
- AC50 (Cytochrome P450 2C9): 17.8 µM (inconclusive)
- EC50 [7]: > 112 µM (not active)

Structure (SMILES): COc1cccc(C(=O)c2cc3ccc(O)cc3oc2=O)c1
- EC50 [6]: 0.571 µM (active)
- EC50 [7]: 1.28 µM (active)

Structure (SMILES): Cc1ccc(-c2cc(N)n(Cc3ccc(Cl)cc3)n2)cc1
- EC50 [6]: > 112 µM (not active)
- EC50 [7]: > 112 µM (not active)

Structure (SMILES): N#C/C(=N\Nc1ccc(Cl)cc1)C(=O)c1ccsc1
- EC50 [1]: 10.8 µM (active)
- EC50 [2]: 81.6 µM (active)

Structure (SMILES): COc1ccc(-n2nc3c(=O)[nH][nH]c3cc2=O)cc1
- EC50 [1]: 3.67 µM (active)
- EC50 [2]: 13.1 µM (active)

Structure (SMILES): Cc1ccnn1CC(=O)N/N=C/c1c[nH]nc1-c1ccccc1
- EC50 [6]: > 112 µM (not active)
- EC50 [7]: > 112 µM (not active)

Structure (SMILES): C/C(=N\NC(=O)C1(C)CC1(Br)Br)c1ccc(NC(=O)c2ccc(C)o2)cc1 (centres undefined)
- EC50 [6]: > 112 µM (not active)
- EC50 [7]: > 112 µM (not active)

Structure (SMILES): N#Cc1c(N)nc(SCc2ccccc2)c(C#N)c1-c1ccco1
- EC50 [1]: > 300 µM (not active)
- EC50 [2]: > 300 µM (not active)
